# From patent US20190226949A1, “IRIDIUM COMPLEXES FOR CELLULAR IMAGING” (UNIVERSITY OF SOUTH AUSTRALIA, priority 2016, published 2019)
# Several values for one entry are separate records, joined by “and”; a condition that tells them apart may be missing. Identical values can stand only once.
# Experiments:
# [1] = Photophysical measurements (absorption, emission, lifetime, quantum yield) in diluted solutions; type: physicochemical; conditions: for Emission λem / τaer, excited state lifetime (relative weight in parentheses) / τdeaer, excited state lifetime (relative weight in parentheses): 298K; for Φaer, quantum yield / Φdeaer, quantum yield: versus Ru(bpy)3^2+ in water (φr = 0.028); for τdeaer, excited state lifetime (relative weight in parentheses) / Φdeaer, quantum yield: deaerated; for knr: calculated as [(1 − φ)/τ] from deaerated solutions; for kr: calculated as [φ/τ] from deaerated solutions; for Φ, quantum yield: versus Ru(bpy)3^2+ in water
# From the text: A summary of the photophysical data for the complexes as diluted solutions (10^−5 M) in dichloromethane, water, PBS, lysosomal fluid solution, and ethyl laurate is reported in Table 1. All the listed aqueous media also contain 0.1% DMSO to favour the solubilisation of the complexes. The various solvents have been chosen to identify potential modulations on the photophysical behaviour of the iridium complexes in diverse cellular environments such as cytoplasm, endosome/lysosomes acidic organelles, or lipid-rich compartments like membranes, endoplasmic reticulum, and lipid droplets. In general, the photophysical characteristics were measured in aerated solutions to take into account the presence of oxygen in live cells. On the other hand, dichloromethane solutions were compared as aerated and degassed to confirm oxygen sensitivity and triplet character of the excited states of the complexes.
# Absorption spectra were recorded at room temperature using a Cary 4000 UV/Vis spectrometer. Uncorrected steady state emission and excitation spectra were recorded on an Edinburgh FLSP980-S2S2-stm spectrometer equipped with: i) a temperature-monitored cuvette holder; ii) 450 W Xenon arc lamp; iii) double excitation and emission monochromators; iv) a Peltier cooled Hamamatsu R928P photomultiplier tube (spectral range 200-870 nm). Emission and excitation spectra were corrected for source intensity (lamp and grating) and emission spectral response (detector and grating) by a calibration curve supplied with the instrument. According to the approach described by Demas and Crosby, luminescence quantum yields (Φem) were measured in optically dilute solutions (O.D.<0.1 at excitation wavelength) obtained from absorption spectra on a wavelength scale [nm] and compared to the reference emitter by the following equation: […]
# where A is the absorbance at the excitation wavelength (λ), I is the intensity of the excitation light at the excitation wavelength (λ), n is the refractive index of the solvent, D is the integrated intensity of the luminescence and Φ is the quantum yield. The subscripts r and x refer to the reference and the sample, respectively. The quantum yield determinations were performed at identical excitation wavelength for the sample and the reference, therefore cancelling the I(λr)/I(λx) term in the equation. The quantum yields of complexes were measured against Rubipy in water (Φr=0.028). Emission lifetimes (z) were determined with the time correlated single photon counting technique (TCSPC) with the same Edinburgh FLSP980-S2S2-stm spectrometer using either a pulsed picosecond LED (EPLED/EPL 377 nm, FHWM<800 ps) or a microsecond flashlamp. The goodness of fit was assessed by minimising the reduced χ^2 function and by visual inspection of the weighted residuals. The solvents used for the preparation of the solutions for the photophysical investigations were of LR grade and the water was deionised. Degassing of the dichlorometane solutions was performed using the freeze-pump-thaw method. Experimental uncertainties are estimated to be ±8% for lifetime determinations, ±20% for quantum yields, ±2 nm and ±5 nm for absorption and emission peaks, respectively.
# [2] = Lipophilicity by shake-flask method (7.4-buffered PBS / n-octanol); type: physicochemical; conditions: 7.4-buffered PBS solution and n-octanol
# Protocol: The lipophilicity of the iridium complexes was measured by the shake-flask method using 7.4-buffered PBS and n-octanol as solvents (Table 2). The values range between 1.49 and 2.68 are typical for cyclometalated iridium complexes that have not been bioconjugated. […] In general, neutral complexes have log D7.4 values above 2.00 and there is an increased in lipophilicity of extending the tetrazolato ligand with the addition of a phenyl spacer in [Ir(ppy)2(TzPyPhCN)], or by extending the conjugation on passing from pyridine to quinoline or isoquinoline for [Ir(ppy)2(TzQn)] and [Ir(ppy)2(TziQn)]. Methylation in all cases reduces lipophilicity to log D7.4 values […], with the same trend within the family of methylated complexes as previously observed for the neutral ones.
# [3] = system: H9c2 rat cardiomyoblast cells; assay: Staining and co-staining of live H9c2 cells, confocal and two-photon microscopy; type: cell-based; conditions: live H9c2, 20 μM, 30 minutes
# Protocol: Live H9c2 rat cardiomyoblasts were incubated with the iridium complexes for 30 minutes. Complexes were made to a final concentration of 20 μM in the cell culture medium with DMSO concentration <0.2%. Under these conditions, the luminescence from the iridium complexes within the cells was detected via confocal microscopy under single-photon excitation (403 nm) or two-photon excitation (810-840 nm).
# To determine the localisation of the iridium complexes, co-staining experiments were carried out with the use of ER-Tracker™ Red (endoplasmic reticulum), LysoTracker® Red DND-99 (acidic compartments), MitoTracker® Red (mitochondria), BODIPY® 500/510 C1, C12(fatty acid) or β-BODIPY® FL HPC (phospholipids). […] This difference was also in agreement with the trend of the quantum yield data illustrated before and detection of internalised complex by ICP-MS.
# H9c2 rat cardiomyoblast cell line was a kind gift from Professor Janna Morrison (University of South Australia). The H9c2 cells were maintained in high-glucose (4500 mg/L) DMEM medium (Sigma-Aldrich, USA) containing 10% fetal bovine serum (FBS; In Vitro Technologies, USA) and 2 mM L-glutamine (Sigma-Aldrich, USA) at 37° C. and 5% CO2. The H9c2 cells were cultured in […] flasks, and cells (1×10^6 cells/mL) that had been passaged, from two up to five times were used for experiments. For live cell imaging and MTS assay, the H9c2 cells (1×10^5 cells/mL) were cultured overnight in either ibidi μ-Slide 8 wells in a final volume of 250 μL or 96-well microtiter plate in a final volume of 200 μL in absence of Ir-based molecular probes.
# The H9c2 cells were incubated with 20 μM of Ir-based molecular probes for 30 minutes in FBS-free media (300 μL) at 37° C. and 5% CO2. These cells were washed twice with phosphate buffered saline (PBS) and once with FBS-free media, and then co-stained with either ER-Tracker™ Red (BODIPY® TR Glibenclamide), LysoTracker® Red DND-99, MitoTracker® Red CMXRos (1H,5H,11H,15H-Xantheno[2,3,4-ij:5,6,7-i′j′]diquinolizin-18-ium, 9-[4-(chloromethyl)phenyl]-2,3,6,7,12,13,16,17-octahydro-, chloride), β-BODIPY® FL C5-HPC (2-(4,4-Difluoro-5,7-Dimethyl-4-Bora-3a,4a-Diaza-s-Indacene-3-Pentanoyl)-1-Hexadecanoyl-sn-Glycero-3-Phosphocholine) or BODIPY® 500/510 C1, C12 (4,4-Difluoro-5-Methyl-4-Bora-3a,4a-Diaza-s-Indacene-3-Dodecanoic Acid), which were obtained from Life Technologies Australia Pty Ltd, Australia. Cell biology analysis was carried out with a minimum of two experimental groups. Imaging analysis was performed using a Nikon A1+ confocal microscope equipped with 403 nm, 488 nm, 561 nm and 640 nm solid-state lasers (Nikon, Japan) and OKOLab Microscope Incubator (Okolab USA Inc., USA). The final preparation of the images was conducted with Adobe Photoshop CC (Adobe Systems Inc., USA).
# The H9c2 cells were incubated with 20 μM of Ir-based molecular probes for 30 minutes in FBS-free media (300 μL) at 37° C. and 5% CO2. These cells then were washed with phosphate buffered saline (PBS) and imaged using Zeiss LSM710 META NLO inverted microscope supplemented with a two-photon Mai-Tai®, tunable Ti:Sapphire femtosecond pulse laser (710-920 nm, Spectra-Physics). Fluorescence of Ir-based molecular probes was detected using the following settings: two-photon excitation wavelength 830 nm, beam splitter MBS 690+, emission interval 520-650 nm. The H9c2 cells were exposed to two-photon illumination between 810-840 nm. A continuum of lambda stack images was captured across the emission spectrum 416-728 nm. The images were acquired using a Plan-APOCHROMAT 63X/NA1.4 oil immersion objective. The final preparation of the images was conducted with Adobe Photoshop CC (Adobe Systems Inc., USA).
Compound,"Emission λem ([1]; DCM, 10^−5 M)","τaer, excited state lifetime (relative weight in parentheses) ([1]; DCM, aerated) [ns]","Φaer, quantum yield ([1]; DCM, aerated)","τdeaer, excited state lifetime (relative weight in parentheses) ([1]; DCM) [ns]","Φdeaer, quantum yield ([1]; DCM)",knr ([1]; DCM),kr ([1]; DCM),"Absorption λabs [nm] (10^4ε [M^−1cm^−1]) ([1]; H2O with 0.1% DMSO, 10^−5 M)","Emission λem ([1]; H2O with 0.1% DMSO, aerated) [nm]","Φ, quantum yield ([1]; H2O with 0.1% DMSO, aerated)","logD7.4, distribution coefficient [2]","emission in the various solvents ([1]; dichloromethane, water, PBS, lysosomal fluid, ethyl laurate)",emission detected from stained cells [3],"Absorption λabs [nm] (10^4ε [M^−1cm^−1]) ([1]; DCM, 10^−5 M)"
N#Cc1ccc2[n+](c1)[Ir]13([c]4cc(F)cc(F)c4-c4cccc[n+]41)([c]1cc(F)cc(F)c1-c1cccc[n+]13)[n]1nnnc1-2 [[Ir(F2ppy)2(TzPyCN)]],542 nm,140,0.042,697,0.406,0.852 10^6s^−1,5.825 10^5s^−1,256 (4.83) nm (10^4ε [M^−1cm^−1]) and 302 (3.36) nm (10^4ε [M^−1cm^−1]) and 366 (1.16) nm (10^4ε [M^−1cm^−1]),552,0.057,2.01 ± 0.05,–,–,–
C[n+]1nc2[n](n1)[Ir]13([c]4ccccc4-c4cccc[n+]41)([c]1ccccc1-c1cccc[n+]13)[n+]1cc(C#N)ccc1-2 [[Ir(ppy)2(MeTzPyCN)]^+],680 nm,–,0.012,–,0.014,–,–,–,–,–,–,appreciable emission only in dichloromethane solution,no emission was detected from stained cells,–
N#Cc1ccc(-c2ccc3[n+](c2)[Ir]24([c]5ccccc5-c5cccc[n+]52)([c]2ccccc2-c2cccc[n+]24)[n]2nnnc2-3)cc1 [[Ir(ppy)2(TzPyPhCN)]],560 nm,114,0.023,880,0.149,0.967 10^6s^−1,1.693 10^5s^−1,286 (1.87) nm (10^4ε [M^−1cm^−1]) and 350 (0.86) nm (10^4ε [M^−1cm^−1]) and 421 (0.34) nm (10^4ε [M^−1cm^−1]),580,0.055,2.68 ± 0.08,–,–,268 (3.95) nm (10^4ε [M^−1cm^−1]) and 290 (3.64) nm (10^4ε [M^−1cm^−1]) and 345 (0.58) nm (10^4ε [M^−1cm^−1]) and 423 (0.27) nm (10^4ε [M^−1cm^−1])
c1cc[c]2c(c1)-c1cccc[n+]1[Ir]213([c]2ccccc2-c2cccc[n+]21)[n]1nnnc1-c1ccc2ccccc2[n+]13 [[Ir(ppy)2(TzQn)]],580 nm,153,0.021,831,0.065,1.125 10^6s^−1,0.782 10^5s^−1,266 (4.41) nm (10^4ε [M^−1cm^−1]) and 350 (2.35) nm (10^4ε [M^−1cm^−1]) and 425 (0.97) nm (10^4ε [M^−1cm^−1]),600,0.039,2.23 ± 0.04,–,–,263 (8.44) nm (10^4ε [M^−1cm^−1]) and 345 (1.97) nm (10^4ε [M^−1cm^−1]) and 428 (0.42) nm (10^4ε [M^−1cm^−1])
c1cc[c]2c(c1)-c1cccc[n+]1[Ir]213([c]2ccccc2-c2cccc[n+]21)[n]1nnnc1-c1c2ccccc2cc[n+]13 [[Ir(ppy)2(TziQn)]],"535, nm and 575 nm and 620 nm",497,0.036,6713,0.144,0.128 10^6s^−1,0.214 10^5s^−1,268 (3.42) nm (10^4ε [M^−1cm^−1]) and 350 (2.00) nm (10^4ε [M^−1cm^−1]) and 435 (0.80) nm (10^4ε [M^−1cm^−1]),590,0.018,2.57 ± 0.05,–,–,260 (9.77) nm (10^4ε [M^−1cm^−1]) and 340 (3.13) nm (10^4ε [M^−1cm^−1]) and 424 (0.75) nm (10^4ε [M^−1cm^−1])
